Source: EP3454821B1, “MICELLES OF D-ALPHA-TOCOPHERYL POLYETHYLENE GLYCOL 1000 SUCCINATE” (Phytoceutical Limited, priority 2016, dated 2017)
Entries after “also recorded” stand apart in the source; their conditions may differ.

Test: Dissolution of Retinol in water
Type: physicochemical
Details: without TPGS
From the text: All attempts to dissolve Retinol in water were unsuccessful except when using a micellar formulation with TPGS, as per the method described in Example 1.
Retinol. No research was undertaken on Objective 2 because Retinol is insoluble in water.

Structure (SMILES): CC1=C(/C=C/C(C)=C/C=C/C(C)=C/CO)C(C)(C)CCC1 [Retinol]
- solubility in water: insoluble; also recorded: unsuccessful
